{
  "source": "patent US11638401B2",
  "about": "“Methods and compositions for increasing tolerance to abiotic stress in plants” (priority 2018, dated 2023)",
  "key": {"Soybean [1]": {"tested_on": "Soybean", "assay": "Soybean Trial 2018, field trial", "assay_type": "in vivo", "settings": "Soybean 2018, Elm City N.C.; Photon 8 g ai/A, Aminoguanidine 2 g ai/A; control 22.3; LSD 0.05 3.8", "source_text": "(§1) In the table below, the treatment labeled “Photon” represents a mixture of azelaic, sebacic, undecanedioic, acids. It is predominantly azelaic acid, and equal parts of the remaining two major constituents. Abbreviations: ai=active ingredient, A=acre, ha=hectare, lbs=pounds, MT=metric ton • Soybean Trial 2018 • Elm City N.C. • Randomized complete block with 5 replicates"}, "Soybean [2]": {"tested_on": "Soybean", "assay": "Soybean - Two Year Summary, field trials", "assay_type": "in vivo", "settings": "Photon 8 g ai/A, Aminoguanidine 2 g ai/A, control 38.9, LSD 0.01 3.9", "source_text": "as §1"}},
  "data": [
    {"compound": "N=C(N)NN", "note": "[Aminoguanidine, aminoguanidine]", "values": [
      {"measurement": "Yield (bu/A)", "setting": "Soybean [1]", "value": 24.3, "unit": "bu/A"},
      {"measurement": "Yield (bu/A)", "setting": "Soybean [2]", "value": 42.5, "unit": "bu/A"}
    ]}
  ]
}
